From paper PMC5324278, “Novel synthetic analogues of avian β-defensin-12: the role of charge, hydrophobicity, and disulfide bridges in biological functions” (BMC Microbiology, 2017)
Where two headings read alike, the source gives them in different places. Bridge positions count the residues as written; N and C are the ends. Square brackets hold non-standard residues; d marks the D form. Ends that are not written are not given here. Abu = CC[C@H](N)C(=O)O

What was measured:
[1] = tested on: P. aeruginosa (ATCC 27853); assay type: cell-based, Pseudomonas aeruginosa
Protocol: (§1) The minimum inhibitory concentrations (MIC) of AvBDs were determined according to the guidelines of the Clinical and Laboratory Standards Institute (CLSI). The Muller Hinton II broth used in standard MIC assays contained 20–25 mg/L of calcium and 10–12.5 mg/L of magnesium. Modified MICs of AvBDs were also determined under a low-salt and low-nutrient condition by using 100× diluted Muller Hinton II broth containing 0.2 mg/L of calcium, 0.1 mg/L magnesium and 5 mM (292 mg/L) NaCl. MIC obtained under the low-salt and low-nutrient condition was referred to as MIC-ls. AvBD peptides were two-fold serially diluted (2 to 256 μg/ml) in a 96-well microtiter plate. An equal volume (μl) of bacterial suspension was added to each well of the plate. The final bacterial concentration in the wells was 5 × 10^5 CFU/ml. […] To complement MIC-ls assays, the minimum bactericidal concentrations (MBC) were evaluated by sub-culturing the contents of the first two clear wells obtained in the MIC-ls assay onto LB agar plates. All assays were conducted in triplicate. The lowest peptide concentration inhibiting more than 99% of bacterial growth was defined as MBC-ls. AvBD analogues were regarded as bactericidal if the MBC was no more than four times the MIC [29].

E. coli (ATCC 25922) = assay type: cell-based, Escherichia coli
Protocol: as §1

[2] = tested on: mouse immature dendritic JAWSII cells; assay: Chemotaxis assay, 48-well microchemotaxis chamber; assay type: cell-based; settings: Fig. 9; n = 5
Protocol: Migration of JAWSII and CCR2-CHO-K1 cells in response to AvBD-12 analogues was determined using a 48-well microchemotaxis chamber technique as previously described. Chemotaxis buffer (Minimum Essential Medium containing 0.1% BSA, 100U/ml penicillin, and 100 μg/ml streptomycin) and bacterial peptide N-Formyl-methionyl-leucyl-phenylalanine (fMLF, Sigma-Aldrich) were included as negative and positive controls, respectively. The results were presented as chemotactic index (C.I.). C.I. = number of migrated cells induced by AvBDs / number of migrated cells induced by chemotactic buffer. The assay was repeated five times.

[3] = tested on: S. Typhimurium (ATCC 14028); assay type: cell-based, Salmonella enteric serovar Typhimurium
Protocol: as §1

CHO-K1 cells = assay: MTT cell cytotoxicity assay; assay type: cell-based; settings: 256 μg/ml; 4, 12, 24 and 48 hours; Student t-test treated vs untreated; n = 3; Figure S1
Protocol: Chicken macrophage cell lines MQ-NCSU and HD11 were maintained in RPMI-1640 media supplemented with 10% fetal bovine serum (FBS), 2% chicken serum, 100 U/ml penicillin and 100 μg/ml streptomycin (Sigma-Aldrich) at 37 °C in humidified air with 5% CO2. CHO-K1 cells were cultured in the same media without 2% chicken serum. For CCR2-transfected CHO-K1 cells, the medium was supplemented with 500 μg/ml G418 was added (Sigma-Aldrich). Murine immature dendritic cell line JAWSII (ATCC CRL-11904™) was cultured in Alpha minimum essential medium containing 4 mM L-glutamine, 1 mM sodium pyruvate, 5 ng/ml murine Granulocyte macrophage colony-stimulating factor (GM-CSF), 20% FBS, 100 U/ml penicillin and 100 μg/ml streptomycin at 37 °C in humidified air with 5% CO2. The cell cytotoxicity was determined using the MTT (3-(4, 5-dimethylthiazol-2-yl)-2, 5-diphenyltetrazolium bromide metabolic activity assay according to the manufacturer’s instruction (Thermo Fisher Scientific). Briefly, cells (5 × 10^3 cells/well) were seeded in 96-well tissue culture plates, incubated overnight and treated with AvBDs at concentrations of 4, 16, 64 and 256 μg/ml for 4, 12, 24 and 48 h at 37 °C. After treatment, 20 μl of 12 mM MTT solution was added to each well. The plate was incubated for 4 h and read at 540 nm. Viability was expressed as percentage of viable cells relative to the untreated control. The experiments were performed in triplicate.

S. aureus (ATCC 29213) = assay type: cell-based, Staphylococcus aureus
Protocol: as §1

[4] = tested on: Salmonella enteric serovar Typhimurium (ATCC 14028); assay type: cell-based; settings: for percent of killing of S. Typhimurium: 16 μg/ml
Protocol: (§2) Escherichia coli (ATCC 25922), Pseudomonas aeruginosa (ATCC 27853), Salmonella enteric serovar Typhimurium (ATCC 14028) and Staphylococcus aureus (ATCC 29213) were used to assess the antimicrobial activity of AvBD analogues. All bacterial strains were grown on Luria-Bertani (LB) agar plates or Trypticase Soy Agar with 5% Sheep Blood (TSA, Thermo Fisher Scientific) plates at 37 °C. Antimicrobial activity was determined by a colony counting assay. In brief, bacteria were resuspended in 100-fold diluted Mueller Hinton II broth with 5 mM NaCl (minimal growth medium) to obtain a final bacterial concentration of 2 × 10^5 CFU/ml. Twenty-five microliters of bacterial suspension and 25 μl of AvBD analogue solution were mixed in the wells of a 96-well polypropylene microtiter plate (Nunc™, Thermo Fisher Scientific). The final peptide concentrations were 2, 4, 8, 16, 32, 64 and 128 μg/ml. The minimal growth medium without AvBD peptide was included as a negative control. The bacterial-peptide mixtures were incubated at 37 °C for 2 h, ten-fold serially diluted and plated on LB agar plates. The numbers of bacteria colonies were enumerated after 16 h of incubation at 37 °C. Antimicrobial activity was expressed as percent of killing using the following formula: (CFUcontrol - CFUtreated) / CFUcontrol × 100%. To assess the resistance of AvBD analogues to sodium chloride (NaCl), antimicrobial assays were carried out in the presence of 5 mM, 50 mM, 100 mM or 150 mM NaCl. All assays were performed in triplicate.

[5] = tested on: Escherichia coli (ATCC 25922); assay type: cell-based; settings: ATCC 25922, 2 h, 16 μg/ml
Protocol: as §2

[6] = tested on: Staphylococcus aureus (ATCC 29213); assay type: cell-based; settings: ATCC 29213, 2 h; for percent of killing of S. aureus: 16 μg/ml
Protocol: as §2

[7] = tested on: Pseudomonas aeruginosa (ATCC 27853); assay type: cell-based; settings: ATCC 27853, 2 h; for percent of killing of P. aeruginosa: 16 μg/ml
Protocol: as §2

[8] = 100× diluted Muller Hinton II broth, 5 mM NaCl, 5 × 10^5 CFU/ml, 37 °C, 24 h, triplicate
[9] = CLSI, standard Muller Hinton II broth, 5 × 10^5 CFU/ml, 37 °C, 24 h, triplicate
[10] = sub-culture of clear MIC-ls wells on LB agar, lowest concentration inhibiting more than 99% of growth, triplicate

Row | Substance | chemotactic activity for JAWSII cells (in words) [2] | MBC-ls P. aeruginosa (ATCC 27853) ([1]; ATCC 27853, 24 h) | MIC-ls P. aeruginosa (ATCC 27853) ([1]; ATCC 27853, 24 h) | MBC-ls E. coli (ATCC 25922) (E. coli (ATCC 25922); ATCC 25922, 24 h) | MIC-ls E. coli (ATCC 25922) (E. coli (ATCC 25922); ATCC 25922, 24 h) | MBC-ls S. Typhimurium (ATCC 14028) ([3]; ATCC 14028, 24 h) | MIC-ls S. Typhimurium (ATCC 14028) ([3]; ATCC 14028, 24 h) | MBC-ls S. aureus (ATCC 29213) (S. aureus (ATCC 29213); ATCC 29213, 24 h) | MIC-ls S. aureus (ATCC 29213) (S. aureus (ATCC 29213); ATCC 29213, 24 h) | percent of killing of E. coli [5] | percent of killing of S. aureus [6] | percent of killing of S. Typhimurium ([4]; ATCC 14028, 2 h) | percent of killing of P. aeruginosa [7] | further results
1 | GPDSC^1NHDRGLC^2RVGNC^3NPGEYLAKYC^4FEPVILC^5C^6VRNRWA (bicyclic or more) [AvBD-12/6, group 3 hybrid peptide: backbone of AvBD-12 with amino acid residues of AvBD-6] | retained the chemotactic function |  |  |  |  |  |  |  |  |  |  |  |  | MIC-ls P. aeruginosa (ATCC 27853) [1, 8]: 64 µg/mL; MIC P. aeruginosa (ATCC 27853) [1, 9]: >256 µg/mL; MBC-ls P. aeruginosa (ATCC 27853) [1, 10]: 256 µg/mL; MIC-ls E. coli (ATCC 25922) (E. coli (ATCC 25922); [8]): 8 µg/mL; MIC E. coli (ATCC 25922) (E. coli (ATCC 25922); [9]): 256 µg/mL; MBC-ls E. coli (ATCC 25922) (E. coli (ATCC 25922); [10]): 32 µg/mL; MIC-ls S. Typhimurium (ATCC 14028) [3, 8]: 16 µg/mL; MIC S. Typhimurium (ATCC 14028) [3, 9]: >256 µg/mL; MBC-ls S. Typhimurium (ATCC 14028) [3, 10]: 64 µg/mL; metabolic activity (viability relative to untreated control), CHO-K1 (CHO-K1 cells): No significant difference was found; MIC-ls S. aureus (ATCC 29213) (S. aureus (ATCC 29213); [8]): 256 µg/mL; MIC S. aureus (ATCC 29213) (S. aureus (ATCC 29213); [9]): 256 µg/mL; MBC-ls S. aureus (ATCC 29213) (S. aureus (ATCC 29213); [10]): 256 µg/mL
2 | GPDS[Abu]NHDRGLCRVGNCNPGEYLAKYCFEPVIL[Abu]CKPLSPTPTKT (disulfide 12-27, 17-35) [AvBD-12A4] |  | >256 µg/mL | 256 µg/mL | >256 µg/mL | 128 µg/mL | >256 µg/mL | 256 µg/mL | >256 µg/mL | >256 µg/mL |  |  |  |  | killing activity against S. Typhimurium compared with AvBD-12 (in words) ([4]; 2 to 128 μg/ml, 2 h at 37 °C, p < 0.05, Fig. 4): weaker action than AvBD-12
3 | GPDS[Abu]NHDRGL[Abu]RVGNCNPGEYLAKY[Abu]FEPVIL[Abu]CKPLSPTPTKT (disulfide 17-35) [AvBD-12A5] | lost their chemotactic activity | >256 µg/mL | 256 µg/mL | 256 µg/mL | 64 µg/mL | >256 µg/mL | 256 µg/mL | >256 µg/mL | >256 µg/mL |  |  |  |  | 
4 | GPDS[Abu]NHDRGL[Abu]RVGN[Abu]NPGEYLAKY[Abu]FEPVIL[Abu][Abu]KPLSPTPTKT [AvBD-12A6] | lost their chemotactic activity | >256 µg/mL | 256 µg/mL | 256 µg/mL | 64 µg/mL | >256 µg/mL | 256 µg/mL | >256 µg/mL | >256 µg/mL |  |  |  |  | 
5 | GPHSANHVRGLARVGNANPGLYLAKYAFIPVILAAKPLSPTPTKT [AvBD-12A1] |  | 256 µg/mL | 32 µg/mL | 32 µg/mL | 8 µg/mL | 128 µg/mL | 32 µg/mL | >256 µg/mL | 256 µg/mL | 88.6% | 77.2% | 95.6% | 72.3% | 
6 | GPRSSNHKRGLSRVGNSNPGKYLAKYAFRPVILAAKPLSPTPTKT [AvBD-12A2] |  | 32 µg/mL | 16 µg/mL | 16 µg/mL | 4 µg/mL | 64 µg/mL | 16 µg/mL | 256 µg/mL | 256 µg/mL | 100% | 83.1% | 93.9% | 98% | killing potency against E. coli retained at 150 mM NaCl [5]: approximately 80%; killing activity against S. aureus retained at 150 mM NaCl ([6]; 64 μg/ml): 30-60%; killing activity against S. Typhimurium retained at 150 mM NaCl ([4]; ATCC 14028, 2 h, 32 μg/ml): 30-60%; killing potency against P. aeruginosa retained at 150 mM NaCl ([7]; 32 μg/ml): approximately 80%
